Where a SMILES comes first, the peptide text is derived from it. Bridges are numbered along the chain shown (N, C = ends). [ ]: non-standard residue; d: D form. The star is where a group is joined. hPhe(3-Cl-4-CF3) = N[C@@H](CCc1ccc(C(F)(F)F)c(Cl)c1)C(=O)O; NPrPhe(4-CF3) = CCCN[C@@H](Cc1ccc(C(F)(F)F)cc1)C(=O)O; NMeGly(cPent) = CN[C@H](C(=O)O)C1CCCC1; NMeD = CN[C@@H](CC(=O)O)C(=O)O; NMeL = CN[C@@H](CC(C)C)C(=O)O; Morpholide = C1CN(*)CCO1; Ac5c = NC1(C(=O)O)CCCC1; NEtG = CCNCC(=O)O; Sar = CNCC(=O)O
Legend:
[1] = molecular target: GDP-bound HRAS wild-type protein (Homo sapiens, UniProt P01112); assay: Binding to HRAS by surface plasmon resonance (SPR), Single Cycle Kinetics; conditions: ratio of KD for GDP-bound HRAS wild-type protein to KD for KRAS, SPR
[2] = molecular target: GDP-bound NRAS wild-type protein (Homo sapiens, UniProt P01111); assay: Binding to NRAS by surface plasmon resonance (SPR), Single Cycle Kinetics; conditions: ratio of KD for GDP-bound NRAS wild-type protein to KD for KRAS, SPR
[3] = tested on: human lung cancer strain NCI-H441; assay: cells; conditions: NCI-H441, 96 h, read-out: NCI-H441 IC50 (nM), NCI-H441 cell proliferation, 4 days, CellTiter-Glo;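 also: cell proliferation inhibition after four days measured by CellTiter-Glo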
[4] = molecular target: GDP-bound KRAS wild-type protein (Homo sapiens, UniProt P01116); assay: Binding to KRAS by surface plasmon resonance (SPR), Single Cycle Kinetics; conditions: SPR, Single Cycle Kinetics, GDP-bound KRAS wild-type protein; read-out: KRAS KD
GDP-bound KRAS wild-type protein, sequence (P01116 whole entry): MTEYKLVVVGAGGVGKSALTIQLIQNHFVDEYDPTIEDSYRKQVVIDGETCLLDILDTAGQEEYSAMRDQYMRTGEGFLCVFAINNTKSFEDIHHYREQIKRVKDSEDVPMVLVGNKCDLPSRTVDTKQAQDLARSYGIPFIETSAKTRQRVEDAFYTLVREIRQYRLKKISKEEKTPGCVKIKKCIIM

GDP-bound HRAS wild-type protein, sequence (P01112 whole entry): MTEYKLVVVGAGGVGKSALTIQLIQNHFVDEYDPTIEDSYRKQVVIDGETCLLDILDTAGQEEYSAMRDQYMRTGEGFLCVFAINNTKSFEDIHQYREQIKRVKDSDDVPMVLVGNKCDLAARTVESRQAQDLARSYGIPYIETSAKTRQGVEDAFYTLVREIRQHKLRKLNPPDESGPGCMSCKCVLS
GDP-bound NRAS wild-type protein, sequence (P01111 whole entry): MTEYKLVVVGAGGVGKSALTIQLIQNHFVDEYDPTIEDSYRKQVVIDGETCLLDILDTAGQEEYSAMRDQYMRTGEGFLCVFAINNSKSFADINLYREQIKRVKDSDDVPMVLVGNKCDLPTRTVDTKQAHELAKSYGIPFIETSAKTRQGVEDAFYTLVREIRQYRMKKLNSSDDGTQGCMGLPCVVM

Structure (SMILES) | IC50 [3] [nM] | Kd [4] [nM] | HRAS/KRAS (KD ratio) [1] | NRAS/KRAS (KD ratio) [2]
CCO[C@@H]1C[C@H]2C(=O)NC3(CC(F)(F)C3)C(=O)N(C)[C@@H](C3CCCC3)C(=O)N(C)[C@H](C3CCC3)CC(=O)N(C)[C@@H](CC3CC3)C(=O)N[C@@H]([C@@H](C)CC)C(=O)N(C)CC(=O)N(C)[C@H]3C/C=C\CCN(C3=O)[C@@H](Cc3ccc(C(F)(F)F)cc3)C(=O)N(C)CC(=O)N[C@@H](CCc3cc(F)c(C(F)(F)F)c(F)c3)C(=O)N2C1 [PP1639] | 44.8 | 0.68 | A (a compound having 10 or more and less than 20 is denoted as A) | A (a compound having 10 or more and less than 20 is denoted as A)
CCC[C@H]1C(=O)N[C@@H]([C@@H](C)CC)C(=O)N(C)CC(=O)N(C)[C@H]2C/C=C\CCN(C2=O)[C@@H](Cc2ccc(C)cc2)C(=O)N(C)CC(=O)N[C@@H](CCc2ccc(C(F)(F)F)c(Cl)c2)C(=O)N2C[C@@H](C)C[C@H]2C(=O)NC2(CC(C)(C)C2)C(=O)N(C)[C@@H](C2CCCC2)C(=O)N(C)[C@H](C(=O)N(C)CC)CC(=O)N1C [PP1893] | 18.5 | 0.17 | B (a compound having 3 or more and less than 10 is denoted as B) | A (a compound having 10 or more and less than 20 is denoted as A)
CCCN(C)C(=O)[C@@H]1CC(=O)N(C)[C@@H](CC(C)C)C(=O)N[C@@H](C2CCOCC2)C(=O)N(C)CC(=O)N(C)[C@H]2C/C=C\CCN(C2=O)[C@@H](Cc2ccc(C(F)(F)F)cc2)C(=O)N(C)CC(=O)N[C@@H](CCc2cc(F)c(C(F)(F)F)c(F)c2)C(=O)N2C[C@H](OCC)C[C@H]2C(=O)NC2(CC(C)(C)C2)C(=O)N(C)[C@@H](C2CCCC2)C(=O)N1C [PP1923] | 68 | 3.4 | A (a compound having 10 or more and less than 20 is denoted as A) | A (a compound having 10 or more and less than 20 is denoted as A)
CCC[C@H]1C(=O)N[C@@H]([C@@H](C)CC)C(=O)N[C@@H](C)C(=O)N(C)[C@H]2C/C=C\CCN(C2=O)[C@@H](Cc2ccc(C(F)(F)F)cc2)C(=O)N(C)CC(=O)N[C@@H](CCc2cc(F)c(C(F)(F)F)c(F)c2)C(=O)N2C[C@H](OCC)C[C@H]2C(=O)NC2(CC(C)(C)C2)C(=O)N(C)[C@@H](C2CCCC2)C(=O)N(C)[C@H](C(=O)N(C)C)CC(=O)N1C [PP1927] | 23.5 | 0.85 | A (a compound having 10 or more and less than 20 is denoted as A) | A (a compound having 10 or more and less than 20 is denoted as A)
CCO[C@@H]1C[C@H]2C(=O)NC3(CC(F)(F)C3)C(=O)N(C)[C@@H](C(CC)CC)C(=O)N3CCC[C@@H]3CC(=O)N(C)[C@@H](CC3CC3)C(=O)N[C@@H]([C@@H](C)CC)C(=O)N(C)CC(=O)N(C)[C@H]3C/C=C\CCN(C3=O)[C@@H](Cc3ccc(C(F)(F)F)cc3)C(=O)N(C)CC(=O)N[C@@H](CCc3cc(F)c(C(F)(F)F)c(F)c3)C(=O)N2C1 [PP1614] | 54.2 | 1.1 | A (a compound having 10 or more and less than 20 is denoted as A) | A (a compound having 10 or more and less than 20 is denoted as A)
CCO[C@@H]1C[C@H]2C(=O)NC3(CC(C)(C)C3)C(=O)N(C)[C@@H](C(CC)CC)C(=O)N3CCC[C@@H]3CC(=O)N(C)[C@@H](CC3CC3)C(=O)N[C@@H]([C@@H](C)CC)C(=O)N(C)CC(=O)N(C)[C@H]3C/C=C\CCN(C3=O)[C@@H](Cc3ccc(C(F)(F)F)cc3)C(=O)N(C)CC(=O)N[C@@H](CCc3cc(F)c(C(F)(F)F)c(F)c3)C(=O)N2C1 [PP1610] | 86.8 | 1.4 | A (a compound having 10 or more and less than 20 is denoted as A) | A (a compound having 10 or more and less than 20 is denoted as A)
CCC[C@H]1C(=O)N[C@@H]([C@@H](C)CC)C(=O)N(C)CC(=O)N(C)[C@H]2C/C=C\CCN(C2=O)[C@@H](Cc2ccc(C)cc2)C(=O)N(C)CC(=O)N[C@@H](CCc2ccc(C(F)(F)F)c(Cl)c2)C(=O)N2C[C@@H](C)C[C@H]2C(=O)NC2(CCC2)C(=O)N(C)[C@@H](C2CCCC2)C(=O)N(C)[C@H](C(=O)N(C)CC)CC(=O)N1C [PP1848] | 22.5 | 0.11 | – | –
CC[C@H](C)[C@@H]1NC(=O)[C@H](CC2CC2)N(C)C(=O)C[C@@H](C(=O)N(C)CC)N(C)C(=O)[C@H](C2CCCC2)N(C)C(=O)C2(CCC2)NC(=O)[C@@H]2C[C@@H](C)CN2C(=O)[C@H](CCc2ccc(C(F)(F)F)c(OC)c2)NC(=O)CN(C)C(=O)[C@H](Cc2ccc(C)cc2)N2CC/C=C\C[C@@H](C2=O)N(C)C(=O)CN(C)C1=O [PP1900] | 24.7 | 0.17 | – | –
CC[C@H](C)[C@@H]1NC(=O)[C@H](CC)N(C)C(=O)C[C@@H](C(=O)N(C)CC)N(C)C(=O)[C@H](C2CCCC2)N(C)C(=O)C2(CC(C)(C)C2)NC(=O)[C@@H]2C[C@H](C)CN2C(=O)[C@H](CCc2cc(F)c(C(F)(F)F)c(F)c2)NC(=O)CN(C)C(=O)[C@H](Cc2ccc(C)cc2)N2CC/C=C\C[C@@H](C2=O)N(C)C(=O)CN(C)C1=O [PP1882] | 20.2 | 0.12 | – | –

Now those with a lower IC50 [3], led by results:

IC50 [3] [nM] | Kd [4] [nM] | Structure (SMILES) | HRAS/KRAS (KD ratio) [1] | NRAS/KRAS (KD ratio) [2]
2.4 | 0.023 | CCC[C@H]1C(=O)N[C@@H]([C@@H](C)CC)C(=O)N(C)CC(=O)N(C)[C@H]2C/C=C\CCN(C2=O)[C@@H](Cc2ccc(C)cc2)C(=O)N(C)CC(=O)N[C@@H](CCc2cc(F)c(C(F)(F)F)c(F)c2)C(=O)N2C[C@H](OCC)C[C@H]2C(=O)N(C)C2(CCC2)C(=O)N(C)[C@@H](C2CCCC2)C(=O)N(C)[C@H](C(=O)N(C)C)CC(=O)N1C [PP1793] | B (a compound having 3 or more and less than 10 is denoted as B) | A (a compound having 10 or more and less than 20 is denoted as A)
10.7 | 0.1 | CC[C@H](C)[C@@H]1NC(=O)[C@H](CC)N(C)C(=O)C[C@@H](C(=O)N(C)C)N(C)C(=O)[C@H](C2CCCC2)N(C)C(=O)C2(CC(C)(C)C2)NC(=O)[C@@H]2C[C@H](C)CN2C(=O)[C@H](CCc2ccc(C(F)(F)F)c(OC)c2)NC(=O)CN(C)C(=O)[C@H](Cc2ccc(C)cc2)N2CC/C=C\C[C@@H](C2=O)N(C)C(=O)CN(C)C1=O [PP1836] | B (a compound having 3 or more and less than 10 is denoted as B) | A (a compound having 10 or more and less than 20 is denoted as A)
7.7 | 0.083 | CC[C@H](C)[C@@H]1NC(=O)[C@H](CC(F)F)N(C)C(=O)C[C@@H](C(=O)N(C)C)N(C)C(=O)[C@H](C2CCCC2)N(C)C(=O)C2(CC(C)(C)C2)NC(=O)[C@@H]2C[C@H](C)CN2C(=O)[C@H](CCc2ccc(C(F)(F)F)c(OC)c2)NC(=O)CN(C)C(=O)[C@H](Cc2ccc(C)cc2)N2CC/C=C\C[C@@H](C2=O)N(C)C(=O)CN(C)C1=O [PP1875] | – | –
1.5 | 0.065 | CCCN(C)C(=O)[C@@H]1CC(=O)N(C)[C@@H](COC)C(=O)N[C@@H]([C@@H](C)CC)C(=O)N(C)CC(=O)N(C)[C@H]2C/C=C\CCN(C2=O)[C@@H](Cc2ccc(C(F)(F)F)cc2)C(=O)N(C)CC(=O)N[C@@H](CCc2ccc(C(F)(F)F)c(OC)c2)C(=O)N2C[C@H](OCC)C[C@H]2C(=O)NC2(CC(C)(C)C2)C(=O)N(C)[C@@H](C2CCCC2)C(=O)N1C [PP1656] | A (a compound having 10 or more and less than 20 is denoted as A) | AA (a compound having 20 or more is denoted as AA)
13.5 | 0.76 | CCCN1C(=O)CN(CC)C(=O)CNC(=O)[C@H]([C@@H](C)CC)NC(=O)[C@H](CC(C)C)N(C)C(=O)C[C@@H](C(=O)N2CCOCC2)N(C)C(=O)[C@H](C2CCCC2)N(C)C(=O)C2(CCCC2)NC(=O)[C@@H]2CCCN2C(=O)[C@H](CCc2ccc(C(F)(F)F)c(Cl)c2)NC(=O)CN(C)C(=O)[C@@H]1Cc1ccc(C(F)(F)F)cc1 [PP1968] ([NMeL]IG[NEtG][NPrPhe(4-CF3)][Sar][hPhe(3-Cl-4-CF3)]P[Ac5c][NMeGly(cPent)][NMeD]-Morpholide; lactam N-11) | C (A compound having a KD ratio of 0.1 or more and less than 3 is denoted as C) | C (A compound having a KD ratio of 0.1 or more and less than 3 is denoted as C)
4.8 | 0.074 | CCC[C@H]1C(=O)N[C@@H]([C@@H](C)CC)C(=O)N(C)CC(=O)N(C)[C@H]2C/C=C\CCN(C2=O)[C@@H](Cc2ccc(C)cc2)C(=O)N(C)CC(=O)N[C@@H](CCc2ccc(C(F)(F)F)c(OC)c2)C(=O)N2C[C@H](OCC)C[C@H]2C(=O)NC2(CC(C)(C)C2)C(=O)N(C)[C@@H](C2CCCC2)C(=O)N(C)[C@H](C(=O)N(C)C)CC(=O)N1C [PP1892] | B (a compound having 3 or more and less than 10 is denoted as B) | A (a compound having 10 or more and less than 20 is denoted as A)
17.7 | 0.23 | CCO[C@@H]1C[C@H]2C(=O)NC3(CC(C)(C)C3)C(=O)N(C)[C@@H](C3CCCC3)C(=O)N(C)[C@H](C(=O)N(C)CC)CC(=O)N(C)[C@@H](C3CCC3)C(=O)N[C@@H]([C@@H](C)CC)C(=O)N(C)CC(=O)N(C)[C@H]3C/C=C\CCN(C3=O)[C@@H](Cc3ccc(C(F)(F)F)cc3)C(=O)N(C)CC(=O)N[C@@H](CCc3ccc(C(F)(F)F)c(OC)c3)C(=O)N2C1 [PP1985] | B (a compound having 3 or more and less than 10 is denoted as B) | –

Source: patent US20240158446A1, “CYCLIC COMPOUND HAVING SELECTIVE INHIBITORY ACTION ON KRAS OVER HRAS AND NRAS” (CHUGAI SEIYAKU KABUSHIKI KAISHA, priority 2021, published 2024)
